Converted amounts (≈) assume the structure as drawn. Read-outs that look alike come from different tables or passages of the source.
How the values were obtained:
[1] = tested on: Gli-luciferase activity in TMHh12 cells; test: Reporter gene assay (RGA) in TMHh12 cells, antagonism of Gli-luciferase activity in presence of Smo agonist; type: cell-based
Procedure: Activity of the compounds was evaluated using a reporter gene assay (RGA) in TMHh12 cells.

[2] = target: mouse Smoothened receptor (Mus musculus, UniProt P56726); test: Smo binding assay, displacement of radio-labeled smoothened agonist, filter binding format (mouse); details: read-out: Mouse Smo bdg., IC50
mouse Smoothened receptor, sequence (P56726 33-793): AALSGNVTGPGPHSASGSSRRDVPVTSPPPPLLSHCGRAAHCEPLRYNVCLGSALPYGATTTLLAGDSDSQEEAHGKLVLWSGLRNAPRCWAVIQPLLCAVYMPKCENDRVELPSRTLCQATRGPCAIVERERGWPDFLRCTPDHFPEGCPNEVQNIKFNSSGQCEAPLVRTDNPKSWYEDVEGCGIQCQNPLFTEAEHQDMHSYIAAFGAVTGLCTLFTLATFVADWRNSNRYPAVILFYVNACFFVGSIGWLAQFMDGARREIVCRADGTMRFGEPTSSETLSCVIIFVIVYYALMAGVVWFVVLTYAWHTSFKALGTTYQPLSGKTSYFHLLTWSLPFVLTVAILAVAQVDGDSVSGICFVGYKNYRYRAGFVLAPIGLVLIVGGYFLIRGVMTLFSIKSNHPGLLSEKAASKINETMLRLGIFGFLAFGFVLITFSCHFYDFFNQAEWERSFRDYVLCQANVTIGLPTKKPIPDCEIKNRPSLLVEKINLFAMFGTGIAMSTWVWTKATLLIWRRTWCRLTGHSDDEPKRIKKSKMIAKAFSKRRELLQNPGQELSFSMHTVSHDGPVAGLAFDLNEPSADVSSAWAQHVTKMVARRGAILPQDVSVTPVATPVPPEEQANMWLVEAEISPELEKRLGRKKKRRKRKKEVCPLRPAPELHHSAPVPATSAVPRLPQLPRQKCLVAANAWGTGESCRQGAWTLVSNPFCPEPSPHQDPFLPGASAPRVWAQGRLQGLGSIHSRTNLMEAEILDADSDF
Text: (§1) A Smo binding assay was developed using radio-labeled smoothened agonist for compound competition. Table 10 lists the IC50 for displacement of a small molecule agonist of Smoothened determined in a filter binding format for the mouse and human Smoothened receptor.

[3] = target: human Smoothened receptor (Homo sapiens, UniProt Q99835); test: Smo binding assay, displacement of radio-labeled smoothened agonist, filter binding format (human); details: read-out: Human Smo bdg., IC50
human Smoothened receptor, sequence (Q99835 28-787): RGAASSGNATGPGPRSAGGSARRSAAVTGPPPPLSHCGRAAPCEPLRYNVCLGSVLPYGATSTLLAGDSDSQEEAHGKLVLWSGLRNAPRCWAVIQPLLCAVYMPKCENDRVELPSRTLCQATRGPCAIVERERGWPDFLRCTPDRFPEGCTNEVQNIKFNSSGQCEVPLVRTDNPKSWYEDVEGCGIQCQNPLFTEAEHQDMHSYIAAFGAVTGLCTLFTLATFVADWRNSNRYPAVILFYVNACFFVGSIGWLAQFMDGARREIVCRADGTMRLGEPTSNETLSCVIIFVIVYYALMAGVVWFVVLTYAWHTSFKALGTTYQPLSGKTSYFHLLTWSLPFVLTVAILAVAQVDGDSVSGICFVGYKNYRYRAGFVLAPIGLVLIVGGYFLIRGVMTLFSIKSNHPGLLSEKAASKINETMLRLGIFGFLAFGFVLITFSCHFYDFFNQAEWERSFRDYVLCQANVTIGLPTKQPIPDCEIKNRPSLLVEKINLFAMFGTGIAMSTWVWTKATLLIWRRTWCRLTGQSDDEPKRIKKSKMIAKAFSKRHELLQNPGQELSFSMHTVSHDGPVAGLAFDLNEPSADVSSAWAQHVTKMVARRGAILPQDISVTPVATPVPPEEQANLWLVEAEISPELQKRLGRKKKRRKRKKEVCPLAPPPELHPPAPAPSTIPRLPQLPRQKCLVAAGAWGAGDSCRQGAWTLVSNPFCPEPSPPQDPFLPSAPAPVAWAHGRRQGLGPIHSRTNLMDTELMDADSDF
Text: as §1

[4] = equilibrium solubility at pH 6.8; type: physicochemical; details: aqueous buffer, thermodynamic from solid, examples of the present invention
[5] = read-out: RGA (1 nM Smo agonist) IC50, 1 nM Smo agonist, Table 10, values as ranges
[6] = read-out: RGA (25 nM Smo agonist) IC50, 25 nM Smo agonist, Table 10, values as ranges
[7] = TMHh12, read-out: RGA (1 nM Smo agonist) IC50, 1 nM Smo agonist, examples of the present invention, exact values
[8] = TMHh12, read-out: RGA (25 nM Smo agonist) IC50, 25 nM Smo agonist, examples of the present invention, exact values
[9] = examples of the present invention, exact values

Row | IC50 [1, 5] | IC50 [1, 6] | IC50 ([2]; Table 10, values as ranges) | IC50 ([3]; Table 10, values as ranges) | IC50 [1, 7] | IC50 [1, 8] | IC50 [2, 9] | IC50 [3, 9] | solubility thermodynamic [4] | Compound
1 | 1 to 10 nM | 1 to 25 nM | 1 to 10 nM | 1 to 10 nM | – | – | – | – | – | 4,5-Dimethyl-3-(1-methyl-1H-tetrazol-5-ylmethyl)-6-[4-(5-trifluoromethyl-pyridin-2-yl)-piperazin-1-yl]-pyridazine & 4,5-Dimethyl-3-(2H-methyl-2H-tetrazol-5-ylmethyl)-6-[4-(5-trifluoromethyl-pyridin-2-yl)-piperazin-1-yl]-pyridazine [160/161]
2 | – | – | – | – | 2 nM | 23 nM | 8 nM | 4 nM | – | Cc1c(Oc2ccccc2)nnc(N2CCN(c3cnc(C(C)(C)O)cn3)[C@H](C)C2)c1C [Example 2, 2-[(R)-4-(4,5-Dimethyl-6-phenoxy-pyridazin-3-yl)-2-methyl-3,4,5,6-tetra-hydro-2H-[1,2′]bipyrazinyl-5′-yl]-propan-2-ol]
3 | < 0.1 nM | 0.1 to 1 nM | < 0.1 nM | < 0.1 nM | – | – | – | – | – | COC(=O)c1cnc(N2CCN(c3nnc(-c4ccc(F)c(Cl)c4)c(C)c3C)CC2)nc1C(F)(F)F [Example 20]
4 | – | – | – | – | 2 nM | 25 nM | 8 nM | 5 nM | 425 µM (≈ 191 µg/mL) | Cc1c(C(O)c2ccccc2)nnc(N2CCN(c3cnc(C(C)(C)O)cn3)[C@H](C)C2)c1C (stereo partly shown) [Example 48]
5 | – | – | – | – | 6 nM | 114 nM | 32 nM | 29 nM | > 1000 µM | Cc1c(Cc2ccncc2)nnc(N2CCN(c3cnc(C(C)(C)O)cn3)[C@H](C)C2)c1C [Example 50, 2-[(R)-4-(4,5-Dimethyl-6-pyridin-4-ylmethyl-pyridazin-3-yl)-2-methyl-3,4,5,6-tetrahydro-2H-[1,2′]bipyrazinyl-5′-yl]-propan-2-ol]
6 | – | – | – | – | 7 nM | 83 nM | 30 nM | 22 nM | 619 µM (≈ 268 µg/mL) | Cc1c(Cc2ccccn2)nnc(N2CCN(c3cnc(C(C)(C)O)cn3)[C@H](C)C2)c1C [Example 54, 2-[(R)-4-(4,5-Dimethyl-6-pyridin-2-ylmethyl-pyridazin-3-yl)-2-methyl-3,4,5,6-tetrahydro-2H-[1,2′]bipyrazinyl-5′-yl]-propan-2-ol]
7 | 1 to 10 nM | 1 to 25 nM | 1 to 25 nM | 1 to 10 nM | – | – | – | – | – | Cc1c(Cc2ccccc2)nnc(N2CCC(C)(c3nc4cnccc4[nH]3)CC2)c1C [Example 59, 2-[1-(6-Benzyl-4,5-dimethyl-pyridazin-3-yl)-4-methyl-piperidin-4-yl]-1H-imidazo[4,5-c]pyridine]
8 | – | – | – | – | 1 nM | 14 nM | 3 nM | 9 nM | 44 µM (≈ 19 µg/mL) | Cc1c(Cc2ccccc2)nnc(N2CCN(c3cnc(C(C)(C)O)cn3)[C@H](C)C2)c1C [Example 88, 2-[(R)-4-(6-Benzyl-4,5-dimethyl-pyridazin-3-yl)-2-methyl-3,4,5,6-tetrahydro-2H-[1,2′]bipyrazinyl-5′-yl]-propan-2-ol]
9 | – | – | – | – | 2 nM | 60 nM | 15 nM | 11 nM | 11 µM (≈ 4.6 µg/mL) | Cc1c(Cc2ccccc2)nnc(N2CCN(c3cnc(C(C)(C)O)cn3)CC2)c1C [Example 89]
10 | – | – | – | – | 1 nM | 34 nM | 7 nM | 6 nM | 18 µM (≈ 7.79 µg/mL) | Cc1c(Cc2ccccc2)nnc(N2CCN(c3cnc(C(C)(C)O)cn3)[C@@H](C)C2)c1C [Example 90]
11 | – | – | – | – | 5 nM | 57 nM | 8 nM | 8 nM | – | CC[C@@H]1CN(c2nnc(Cc3ccccc3)c(C)c2C)CCN1c1cnc(C(C)(C)O)cn1 [Example 91]
12 | – | – | – | – | 1 nM | 14 nM | 3 nM | 1 nM | 20 µM (≈ 8.89 µg/mL) | C[C@@H]1CN(c2nnc(Cc3ccccc3)c3c2CCC3)CCN1c1cnc(C(C)(C)O)cn1 [Example 93]
13 | – | – | – | – | 8 nM | 110 nM | 9 nM | 8 nM | – | CC(=O)c1cnc(N2CCN(c3nnc(Cc4ccccc4)c(C)c3C)C[C@H]2C)cn1 [Example 95, 1-[(R)-4-(6-Benzyl-4,5-dimethyl-pyridazin-3-yl)-2-methyl-3,4,5,6-tetrahydro-2H-[1,2]bipyrazinyl-5′-yl]-ethanone]
14 | – | – | – | – | 6 nM | 62 nM | 4 nM | 3 nM | – | Cc1c(Cc2ccccc2)nnc(N2CCN(c3ncc(C(C)(C)O)c(C(F)(F)F)n3)[C@H](C)C2)c1C [Example 96]
15 | – | – | – | – | 3 nM | 35 nM | 2 nM | 2 nM | – | Cc1c(Cc2ccc(F)cc2)nnc(N2CCN(c3ncc(C(C)(C)O)c(C(F)(F)F)n3)[C@H](C)C2)c1C [Example 97]
16 | – | – | – | – | 11 nM | 69 nM | 6 nM | 6 nM | – | C[C@@H]1CN(c2nnc(Cc3ccccc3)c3c2CCC3)CCN1c1ncc(C(C)(C)O)c(C(F)(F)F)n1 [Example 98]
17 | – | – | – | – | 5 nM | 72 nM | 3 nM | 2 nM | – | C[C@@H]1CN(c2nnc(Cc3ccc(F)cc3)c3c2CCC3)CCN1c1ncc(C(C)(C)O)c(C(F)(F)F)n1 [Example 99]
18 | – | – | – | – | 5 nM | 70 nM | 9 nM | 14 nM | – | CC(C)(O)c1ccc(N2CCN(c3nnc(Cc4ccc(F)cc4)c4c3CCCC4)CC2)nc1 [Example 104]
19 | – | – | – | – | 3 nM | 35 nM | 6 nM | 7 nM | – | CC(C)(O)c1ccc(N2CCN(c3nnc(Cc4ccc(F)cc4)c4c3CCC4)CC2)nc1 [Example 105]
20 | – | – | – | – | 5 nM | 76 nM | 5 nM | 7 nM | – | Cc1c(Cc2ccc(F)cc2)nnc(N2CCN(c3ccc(C(C)(C)O)cn3)CC2)c1C [Example 106]
21 | – | – | – | – | 2 nM | 23 nM | 3 nM | 3 nM | – | C[C@@H]1CN(c2nnc(Cc3ccccc3)c3c2CCC3)CCN1c1cc(C(F)(F)F)c(C(C)(C)O)cn1 [Example 107]
22 | – | – | – | – | 4 nM | 33 nM | – | – | – | CC(=O)c1cnc(N2CCN(c3nnc(Cc4ccccc4)c4c3CCC4)C[C@H]2C)cc1C(F)(F)F [Example 108]
23 | – | – | – | – | 3 nM | 38 nM | 2 nM | 2 nM | – | C[C@@H]1CN(c2nnc(Cc3ccc(F)cc3)c3c2CCC3)CCN1c1cc(C(F)(F)F)c(C(C)(C)O)cn1 [Example 109]
24 | – | – | – | – | 1 nM | 18 nM | 2 nM | 1 nM | – | CCC(O)(CC)c1cnc(N2CCN(c3nnc(Cc4ccccc4)c(C)c3C)C[C@H]2C)cn1 [Example 111]
25 | – | – | – | – | 5 nM | 83 nM | 19 nM | 24 nM | 270 µM (≈ 121 µg/mL) | Cc1c(Cc2ccccc2)nnc(N2CCN(c3cnc(C(C)(O)CO)cn3)[C@H](C)C2)c1C (stereo partly drawn) [Example 144, 2-[(R)-4-(6-Benzyl-4,5-dimethyl-pyridazin-3-yl)-2-methyl-3,4,5,6-tetrahydro-2H-[1,2]bipyrazinyl-5′-yl]-propane-1,2-diol]

Source: US8481542B2, “Pyridazinyl derivatives as smo inhibitors” (Novartis AG, priority 2008, dated 2013)
